# Experimental data taken from US8735439B2, “Chlorin e6-folic acid conjugate, preparation method thereof, and a pharmaceutical composition for the treatment of cancer comprising the same” (Diatech Korea Co., Ltd., priority 2009, dated 2014).
# Values joined by “and” are separate entries in the source; they are usually repeats but may differ in a detail not shown here. Equal values may be shown once.
# Assays:
# [1] = tested on: sarcoma M-1; experiment: Necrotic area in sarcoma M-1 after PDT; assay type: in vivo, rats; settings: for Necrotic area / Ratio of necrotic area to total area: PDT 100 J/cm^2 at 4 hours, mean of 25 slides
# Procedure: 2 hours later the animals were killed by chloroform, the tumor was excised and fixed for one hour in 10%-HOM formalin. After fixation, transverse sections of the tumor nodule in its highest diameter were made, and pictures were taken by a camera connected to a computer.
# For quantitative assessment of necroses formed after PDT, computer analysis of color tints of histo-topographic tumor slides was performed using a special program.
# The program included an algorithm of blue color identification (Evans blue), which stained viable areas of the tumor. Tumor areas killed from direct cytotoxic effect or due to structural-functional disorders of microcirculation were not stained in blue. The ratio of all non-stained dots to the total amount of dots in the fence of the tumor slide was considered to be the destruction efficiency.
# For this purpose, a laser medical instrument “ ? 680-2000” (BIOSPEC, Moscow) was used to perform the exposure at a wavelength of 670 nm in a dose of 100 J/cm^2. The power density was 0.51 W/cm^2, the output power was 0.4 W, and the spot light diameter was 1 cm. Time of exposure was […]. Monitoring over radiating power was conducted by a universal power meter included in the laser device “ ? 4680-2000”.
# [2] = tested on: sarcoma M-1; experiment: Accumulation kinetics of photosensitizer in rats with sarcoma M-1; assay type: in vivo; settings: rats with sarcoma M-1, 5.0 mg/kg
# Procedure: The experiments were conducted on 100 white outbred rats with subcutaneous transplantation of sarcoma M-1, 7-9 days after tumor transplant. Photosensitizers were introduced to the animals via an intravenous route, once at a dose of 2.5, 5.0 and 10.0 mg/kg in a room with a low level of light. A sterile isotonic solution of sodium chloride was used as a solvent. Follow up over the dynamics of photosensitizer accumulation in tumor and normal tissues was conducted at 30 mins, 1-5 hours, and 1-6 days after photosensitizer administration.
# In tumor tissues of rats with sarcoma M-1 and normal tissues (skin of opposite haunch), the dynamics of photosensitizer accumulation was analyzed by the method of measurement of life time using computer fluorescent spectrophotometry. For this purpose, a laser-fiber spectroanalyzer “LESA-6” with a helium-neon diagnostic laser “LHN 633-25” (BIOSPEC, Moscow) was used. This allows an estimate locally of the level of photosensitizer accumulation in any organs and tissues accessible for an optical fiber probe.
# For real time monitoring at every hour after administration of the drug, the distal end of a catheter was placed over the tumor and normal tissues, and the intensity of the drug accumulation was recorded on the wave length corresponding to maximum fluorescence. […]
# [3] = Photophysical parameters (triplet state, intercombinative conversion) of chlorin e6 conjugate; assay type: physicochemical
# Procedure: Values of Δ ? and Δ ? were determined after substantially transferring of all molecules of the studied substance in excited triplet state. In such conditions, ΔD=CΔεTl, wherein C indicates the molar concentration of the substance in solution, and l indicates the length of the optical way. As the standard to estimate γ, Pd(II)-octa ethyl porphyrin (Pd (II)-OEP) was selected, for which the γ value in benzol was considered as equal to one.
# [4] = tested on: HeLa tumor cells; experiment: Cytotoxicity (antiproliferative assay) in the absence of light exposure; assay type: cell-based; settings: for number of HeLa cells: no light, 24 hours
# Procedure: Cytotoxicity was analyzed, considering the intensity of proliferative processes in cells, photosensitizer concentration, and dose of optical power. For each point, 3 flasks with cell monolayer were used.
# The monolayer culture of HeLa tumor cells was chosen and used as the cell.
# The culture of HeLa tumor cells was grown in nutrient medium 199 or in nutrient medium containing hemohydrolyzate supplemented with 10% fetal bovine serum and […] of kanamycin. […]
# Flasks with light-protective cover (dark cytotoxicity) were incubated at 37.5° C. for 1 hour. The cells were washed with Hank's solution 4 times. 2.0 ml of fresh nutrient medium were added, and the cells were irradiated at the temperature of melting ice for 5, 10, 15 or 20 mins by the light flux of a “METALAZ” laser medical device (wavelength: 627.8 nm, 578.2 or 510.6 nm) or “LD 680-2000” (wavelength: 670-690 nm), depending on the wavelength of maximum spectral absorption of the studied photosensitizer, at a dose of 40 J/cm^2. After 20-24 hours, the number of tumor cell was counted in Goriaev's chamber.
# [5] = molecular target: human serum albumin (Homo sapiens, UniProt P02768); experiment: Pigment-protein complex formation with human serum albumin; settings: HSA, number of binding positions n=1
# Chain of human serum albumin (P02768 25-609): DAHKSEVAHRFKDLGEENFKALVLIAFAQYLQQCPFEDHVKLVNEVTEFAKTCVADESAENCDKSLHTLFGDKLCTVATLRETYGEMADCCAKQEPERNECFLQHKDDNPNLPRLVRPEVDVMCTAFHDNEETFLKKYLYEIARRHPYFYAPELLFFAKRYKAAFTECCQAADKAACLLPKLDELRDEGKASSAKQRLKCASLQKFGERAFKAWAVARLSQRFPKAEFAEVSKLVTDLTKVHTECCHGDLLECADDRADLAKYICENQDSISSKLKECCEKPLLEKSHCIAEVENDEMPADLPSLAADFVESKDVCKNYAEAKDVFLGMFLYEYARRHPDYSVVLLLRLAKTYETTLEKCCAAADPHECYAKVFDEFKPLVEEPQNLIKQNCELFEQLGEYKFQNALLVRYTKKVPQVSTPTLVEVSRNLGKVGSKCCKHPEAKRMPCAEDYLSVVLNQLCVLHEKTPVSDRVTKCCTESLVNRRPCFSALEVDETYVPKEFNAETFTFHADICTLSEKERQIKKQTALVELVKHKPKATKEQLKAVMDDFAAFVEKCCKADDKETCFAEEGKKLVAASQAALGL
# Text: Pigment-protein complexes have been formed by adding to the solution of human serum albumin (HAS) a specific amount of photosensitizer dissolved in the same buffer. […] Similarly, the photosensitizer was included in detergent micelle (Triton X-100, C=10^−3M).
# wherein r and C are the respectively concentrations of bound and unbound protein pigment, r+C=CΣ. […] It is also applicable with respect to pigment molecules included in Triton X-100 micelle.
substance,measurement,setting,value
[γ-(6-aminohexyl)folic acid]-chlorin e6 [chlorin e6 conjugate],Necrotic area,[1]; 2.5 mg/kg,0.637 cm^2
same,Ratio of necrotic area to total area,[1]; 2.5 mg/kg,25.56±1.65% and 25.56%
same,Necrotic area,[1]; 5.0 mg/kg,0.741 cm^2
same,Ratio of necrotic area to total area,[1]; 5.0 mg/kg,34.16±2.16% and 34.16%
same,anti-tumor effect compared among dose and exposure groups,"[1]; 10.0 mg/kg, 1 hr exposure",most prominent anti-tumor effect
same,Necrotic area,[1]; 10.0 mg/kg,1.205 cm^2
same,Ratio of necrotic area to total area,[1]; 10.0 mg/kg,66.16±3.83% and 66.16%
same,Ratio of necrotic area to total area,"[1]; 10.0 mg/kg, listed as chlorin e6-folic acid conjugate",66.16%
same,time of maximum accumulation in tumor tissue,[2],2 to 5 h
same,Δε^T,"[3]; H2O, pH 8.1",278 dm^3 mol^−1 cm^−1
same,γ (photoresponse of intercombinative conversion),"[3]; H2O, pH 8.1",0.8
same,"τt (triplet lifetime, oxygen saturated)","[3]; H2O, pH 8.1",2.5 μs
same,"τt^0 (triplet lifetime, deoxygenated)","[3]; H2O, pH 8.1",170 μs
same,Δε^T,"[3]; HSA, H2O, pH 8.1",798 dm^3 mol^−1 cm^−1
same,γ (photoresponse of intercombinative conversion),"[3]; HSA, H2O, pH 8.1",0.82
same,"τt (triplet lifetime, oxygen saturated)","[3]; HSA, H2O, pH 8.1",14.7 μs
same,"τt^0 (triplet lifetime, deoxygenated)","[3]; HSA, H2O, pH 8.1",700 μs
same,Δε^T,"[3]; Liposomes, H2O, pH 8.1",251 dm^3 mol^−1 cm^−1
same,γ (photoresponse of intercombinative conversion),"[3]; Liposomes, H2O, pH 8.1",0.78
same,"τt (triplet lifetime, oxygen saturated)","[3]; Liposomes, H2O, pH 8.1",1.4 μs
same,"τt^0 (triplet lifetime, deoxygenated)","[3]; Liposomes, H2O, pH 8.1",70 μs
same,Δε^T,[3]; Pyridine,94 dm^3 mol^−1 cm^−1
same,γ (photoresponse of intercombinative conversion),[3]; Pyridine,0.81
same,"τt (triplet lifetime, oxygen saturated)",[3]; Pyridine,0.3 μs
same,"τt^0 (triplet lifetime, deoxygenated)",[3]; Pyridine,140 μs
same,"τt (triplet lifetime, oxygen saturated)",[3]; Triton X-100,2.6 μs
same,"τt^0 (triplet lifetime, deoxygenated)",[3]; Triton X-100,230 μs
same,γ (photoresponse of intercombinative conversion),[3]; practically similar in all the systems,≈ 0.7
same,cell survival rate,"[4]; Hela cells, 24 hr incubation, absence of light exposure",about 90%
same,number of HeLa cells,[4]; photosensitizer conc. 1 (μm),102.1 percentage of the control
same,number of HeLa cells,[4]; photosensitizer conc. 2.5 (μm),95.6 percentage of the control
same,number of HeLa cells,[4]; photosensitizer conc. 5.0 (μm),94.1 percentage of the control
same,number of HeLa cells,[4]; photosensitizer conc. 10.0 (μm),95.9 percentage of the control
same,number of HeLa cells,[4]; photosensitizer conc. 20.0 (μm),89.0 percentage of the control
same,number of HeLa cells,[4]; photosensitizer conc. 30.0 (μm),86.6 percentage of the control
same,binding constant κCB with protein,[5],1.2e+06 M⁻¹
